Literature values, collected in patent publication US6090854A, “Aryloxyanilides and related compounds” (Bristol-Meyers Company, priority 1999, dated 2000).

Assays:
circadian rhythms = conditions: exogenous melatonin, rats; Cassone et al. 1986

oral bioavailability: often low and variable
SMILES: COc1ccc2[nH]cc(CCNC(C)=O)c2c1 [melatonin, N-acetyl-5-methoxytryptamine]
synchronization of circadian rhythms (circadian rhythms): found to synchronize circadian rhythms in rats
